According to patent publication US7307089B2, “Aryloxy quinolines and uses thereof” (Roche Palo Alto LLC, priority 2005, dated 2007):
pKi: −log10 of the molar value. Counter-ions that a name gives are not always drawn.

Legend:
[1] = molecular target: T1, recombinant human 5-HT6 receptor (Homo sapiens, UniProt P50406); assay: Radioligand binding studies: competition for [3H]LSD binding in HEK293 cell membranes; details: [3H]LSD (5 nM) displacement, membranes of HEK293 cells stably expressing the receptor, 60 min at 37° C., pH 7.4
T1 construct: expressed in transfected cells; membranes used
Procedure: Radioligand Binding Studies
This example illustrates in vitro radioligand binding studies of compound of formula I.
The binding activity of compounds of this invention in vitro was determined as follows. Duplicate determinations of ligand affinity are made by competing for binding of [^3H]LSD in cell membranes derived from HEK293 cells stably expressing recombinant human 5-HT6 receptor. This cell line was prepared by the method described by Monsma et al., Molecular Pharmacology, Vol. 43 pp. 320-327 (1993).
All determinations were made in assay buffer containing 50 mM Tris-HCl, 10 mM MgSO4, 0.5 mM EDTA, 1 mM ascorbic acid, pH 7.4 at 37° C., in a 250 microliter reaction volume. Assay tubes containing [^3H] LSD (5 nM), competing ligand, and membrane were incubated in a shaking water bath for 60 min. at 37° C., filtered onto Packard GF-B plates (pre-soaked with 0.3% PEI) using a Packard 96 well cell harvester and washed 3 times in ice cold 50 mM Tris-HCl. Bound [^3H] LSD was determined as radioactive counts per minute using Packard TopCount.
Displacement of [3H]LSD from the binding sites was quantified by fitting concentration-binding data to a 4-parameter logistic equation:
[formula] where Hill is the Hill slope, [ligand] is the concentration of competing radioligand and IC50 is the concentration of radioligand producing half-maximal specific binding of radioligand. […]

T1 sequence (P50406 whole entry): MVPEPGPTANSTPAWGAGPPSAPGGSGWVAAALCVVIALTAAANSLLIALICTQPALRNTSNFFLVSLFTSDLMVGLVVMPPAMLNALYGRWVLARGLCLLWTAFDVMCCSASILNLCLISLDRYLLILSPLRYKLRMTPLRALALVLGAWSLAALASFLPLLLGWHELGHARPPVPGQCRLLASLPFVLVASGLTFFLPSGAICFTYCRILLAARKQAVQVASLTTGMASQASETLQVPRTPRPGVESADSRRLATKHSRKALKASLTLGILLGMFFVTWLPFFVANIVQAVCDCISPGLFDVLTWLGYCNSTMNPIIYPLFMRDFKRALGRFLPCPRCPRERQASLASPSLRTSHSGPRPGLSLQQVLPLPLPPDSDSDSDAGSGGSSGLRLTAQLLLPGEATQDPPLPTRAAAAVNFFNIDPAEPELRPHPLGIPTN

melting point | pKi [1] | Compound
143 to 144 °C |  | Cc1cnc2c(N3CCNCC3)cccc2c1Oc1ccccc1 (as salt: TFA)
254 to 255 °C (dec.) |  | COc1cccc(Oc2c(C)cnc3c(N4CCNCC4)cccc23)c1 (as salt: hydrochloride) [Compound 2, 4-(3-Methoxy-phenoxy)-3-methyl-8-piperazin-1-yl-quinoline]
 | ~9.00 | COc1cc(N2CCNCC2)c2ncc(C)c(Oc3ccccc3)c2c1 [Compound 10, 6-Methoxy-3-methyl-4-phenoxy-8-piperazin-1-yl-quinoline]
